Test results from patent publication US12491185B2, “Inhibitors of mPTP” (NRG Therapeutics Ltd, priority 2023, dated 2025).

Tested on: mPTP
Experiment: mPTP activity (Ca2+ retention) assay in isolated rat liver mitochondria
Format: biochemical
Conditions: examples tested by different contract research organisations, believed comparable
Description: Pharmacological inhibition or modulation of the mPTP can be measured in well characterised ‘Ca^2+ retention’ assays performed in isolated mitochondria. In vitro, isolated mitochondria rapidly sequester exogenous Ca^2+ until the intramitochondrial Ca^2+ concentration reaches the threshold for mPTP activation. Once the pore is activated, mitochondrial integrity is compromised and the stored Ca^2+ is released. The distribution of Ca^2+ between extra- and intra-mitochondrial compartments can be measured in real time with the use of membrane-impermeant Ca^2+ sensitive fluorescent dyes. Depending on the configuration of the assay, inhibition or modulation of the mPTP either delays the opening of the pore or increases the concentration of Ca^2+ required to induce mPTP opening.
MPTP activity was measured in mitochondria freshly isolated from female Sprague Dawley (250 to 300 gram) rat livers using the following method. Cervical dislocation was performed on the rat. The liver was then perfused in-situ with −40 ml cold Dulbecco's Phosphate Buffered Saline (DPBS) prior to dissection and transferred into 30 ml Isolation Buffer (250 mM Sucrose, 10 mM KCl, 1 mM EGTA, 1 mM EDTA, 25 mM HEPES, adjusted to pH 7.5 with 1M NaOH). Each lobe of the liver was then removed from the buffer, minced using tweezers and a scalpel into −5 mm pieces then transferred into a 50 ml Potterton dounce homogenization tube on ice containing 30 ml ice-cold centrifugation buffer (300 mM Trehalose, 25 mM HEPES, 1 mM EGTA, 1 mM EDTA, 10 mM KCl, adjusted to pH 7.5 with 1M NaOH and supplemented with 0.1% bovine serum albumin (BSA) and complete protease inhibitor cocktail (one tablet of inhibitor per 50 mls of buffer). Homogenisation was carried out using a teflon pestle at 1800 rpm. The slurry was centrifuged at 800 g for 10 min at 4° C., then the supernatant centrifuged at 10,000 g for 10 min. The pellet was washed once with FLIPR assay buffer (75 mM Mannitol, 25 mM Sucrose, 5 mM Potassium Phosphate Monobasic, 20 mM Tris base, 100 mM KCl, 0.1% BSA adjusted to pH 7.4 with 5M HCl) centrifuged again, then resuspended in FLIPR assay buffer to a concentration of 8.8 mg/ml protein.
Tested compounds (10 mM stock in DMSO) were serially diluted in DMSO in half log steps to generate 10 test concentrations (final concentrations in assay 30 μM to 1 nM). An intermediate dilution of 5 μl DMSO samples into 247 μl FLIPR assay buffer was carried out prior to transfer of 5 μl into duplicate wells of a 384 well polypropylene assay plate. Control wells were 0.5% (v/v) DMSO and 5 μM cyclosporin A.
A stock mitochondria/Fluo5N assay solution was prepared in 5.6 ml FLIPR assay buffer (at RT) supplemented with succinate disodium salt (10 mM), rotenone (1 μM), Fluo5N pentapotassium salt (2 μM) and 1 ml mitochondria suspension, then transferred (15 μl) into the assay plate containing test compounds and incubated for 10 min at RT. Assay plates were processed for fluorescence detection on either a FLIPR Tetra (Molecular Devices) or CLARIOstar (BMG) plate reader. For kinetic fluorescence detection on the FLIPR, dye fluorescence was measured every 3 sec for a total of 10 min. After 12 sec, a 2.5 μl bolus of CaCl2 (75 μM) was added from a source plate containing 675 μM CaCl2 in FLIPR assay buffer. Alternatively, the 2.5 μl addition of CaCl2 was performed using a Viaflow 384, plates were incubated at RT for 10 min, and dye fluorescence measured after 10 min on the CLARIOstar plate reader. pIC50 values for tested compounds were calculated using the fluorescence value collected at the 10 min timepoint on either plate reader, with % inhibition calculated using the DMSO control and cyclosporin A values as 0 and 100% respectively.

Structure (SMILES)	mPTP Rat liver pIC50
CC(NC(=O)c1nn(C)c(=O)[nH]1)C(C)(C)Cc1ccccc1 (single isomer, unassigned) [Example 39A, N-(3,3-dimethyl-4-phenylbutan-2-yl)-1-methyl-5-oxo-4,5-dihydro-1H-1,2,4-triazole-3-carboxamide]	<4.57
CC(C)[C@@H](CNC(=O)c1nn(C)c(=O)[nH]1)Cc1ccccc1 (single isomer, unassigned) [Example 46A]	4.71
O=C(NCC1(Cc2ccccc2)CCC1)c1ccnc(=O)[nH]1 [Example 6, N-((1-benzylcyclobutyl)methyl)-2-oxo-2,3-dihydropyrimidine-4-carboxamide]	5.13
CC(C)C(CNC(=O)c1nn(C)c(=O)[nH]1)Cc1ccccc1 (stereo not drawn) [Example 45, N-(2-benzyl-3-methylbutyl)-1-methyl-5-oxo-4,5-dihydro-1H-1,2,4-triazole-3-carboxamide]	6.50
CCCC(CNC(=O)c1nn(C)c(=O)[nH]1)Cc1ccccc1 (stereo not drawn) [Example 55, N-(2-benzylpentyl)-1-methyl-5-oxo-4,5-dihydro-1H-1,2,4-triazole-3-carboxamide]	5.44
Cn1nc(C(=O)NCC2(C)Cc3ccccc3C2)[nH]c1=O [Example 58]	5.03
Cn1nc(C(=O)NCCC(C)(C)c2ccccc2)[nH]c1=O [Example 59]	5.06
Cn1nc(C(=O)NCC2CCc3ccccc3C2)[nH]c1=O (stereo not drawn) [Example 60]	5.10
COc1ccccc1CC1(CNC(=O)c2nn(C)c(=O)[nH]2)CCC1 [Example 61, N-((1-(2-methoxybenzyl)cyclobutyl)methyl)-1-methyl-5-oxo-4,5-dihydro-1H-1,2,4-triazole-3-carboxamide]	4.99
Cn1cc(C(=O)NCC2(Cc3ccccc3)CCC2)[nH]c1=O [Example 63, N-((1-benzylcyclobutyl)methyl)-1-methyl-2-oxo-2,3-dihydro-1H-imidazole-4-carboxamide]	4.65
O=C1COCC(C(=O)NCC2(Cc3ccccc3)CCC2)N1 (stereo not drawn) [Example 65, N-((1-benzylcyclobutyl)methyl)-5-oxomorpholine-3-carboxamide]	<4.52
O=C(NCC1(Cc2ccccc2)CCC1)c1nc2ccccc2c(=O)[nH]1 [Example 66, N-((1-benzylcyclobutyl)methyl)-4-oxo-3,4-dihydro-quinazoline-2-carboxamide]	<4.52
Cn1nc(C(=O)NCC(C)(C)Cc2ccccc2)ccc1=O [Example 67, N-(2,2-dimethyl-3-phenylpropyl)-1-methyl-6-oxo-1,6-dihydro-pyridazine-3-carboxamide]	<4.52
Cn1c(=O)[nH]cc(C(=O)NCC(C)(C)Cc2ccccc2)c1=O [Example 68, N-(2,2-dimethyl-3-phenylpropyl)-3-methyl-2,4-dioxo-1,2,3,4-tetrahydro-pyrimidine-5-carboxamide]	<4.52
CC(C)(CNC(=O)c1cc(C(F)(F)F)n[nH]1)Cc1ccccc1 [Example 69, N-(2,2-dimethyl-3-phenylpropyl)-3-(trifluoromethyl)-1H-pyrazole-5-carboxamide]	<4.52
Cn1nc(C(=O)NCC(CO)Cc2ccccc2)[nH]c1=O (stereo not drawn) [Example 70, N-(2-benzyl-3-hydroxypropyl)-1-methyl-5-oxo-4,5-dihydro-1H-1,2,4-triazole-3-carboxamide]	4.85
Cn1nc(C(=O)NC(CCc2ccccc2)CC(F)(F)F)[nH]c1=O (stereo not drawn) [Example 71, 1-methyl-5-oxo-N-(1,1,1-trifluoro-5-phenylpentan-3-yl)-4,5-dihydro-1H-1,2,4-triazole-3-carboxamide]	<4.52
CN(CC(C)(C)Cc1ccccc1)C(=O)c1nn(C)c(=O)[nH]1 [Example 72, N-(2,2-dimethyl-3-phenylpropyl)-N,1-dimethyl-5-oxo-4,5-dihydro-1H-1,2,4-triazole-3-carboxamide]	4.67
Cn1nc(C(=O)NCC2(Cc3ccc(F)cc3F)CCCCC2)[nH]c1=O [Example 73, N-((1-(2,4-Difluorobenzyl)cyclohexyl)methyl)-1-methyl-5-oxo-4,5-dihydro-1H-1,2,4-triazole-3-carboxamide]	5.84
CC[C@@H](Cc1ccccc1)[C@H](C)NC(=O)c1nn(C)c(=O)[nH]1 [Example 74, N-((2S,3S)-3-benzylpentan-2-yl)-1-methyl-5-oxo-4,5-dihydro-1H-1,2,4-triazole-3-carboxamide]	5.98
COc1cccc(CC2(CNC(=O)c3nn(C)c(=O)[nH]3)CCC2)c1 [Example 75, N-((1-(3-Methoxybenzyl)cyclobutyl)methyl)-1-methyl-5-oxo-4,5-dihydro-1H-1,2,4-triazole-3-carboxamide]	5.77
Cn1nc(C(=O)NCC2(Cc3ccccc3C(F)F)CCC2)[nH]c1=O [Example 76, N-((1-(2-(Difluoromethyl)benzyl)cyclobutyl)methyl)-1-methyl-5-oxo-4,5-dihydro-1H-1,2,4-triazole-3-carboxamide]	5.65
Cn1nc(C(=O)NCC2(Cc3cccc(C4CC4)c3)CCC2)[nH]c1=O [Example 77, N-((1-(3-Cyclopropylbenzyl)cyclobutyl)methyl)-1-methyl-5-oxo-4,5-dihydro-1H-1,2,4-triazole-3-carboxamide]	4.78
CCc1ccccc1CC1(CNC(=O)c2nn(C)c(=O)[nH]2)CCC1 [Example 82, N-((1-(2-Ethylbenzyl)cyclobutyl)methyl)-1-methyl-5-oxo-4,5-dihydro-1H-1,2,4-triazole-3-carboxamide]	5.27
Cn1nc(C(=O)NCC2(Cc3cccc(Cl)c3F)CCC2)[nH]c1=O [Example 85, N-((1-(3-Chloro-2-fluorobenzyl)cyclobutyl)methyl)-1-methyl-5-oxo-4,5-dihydro-1H-1,2,4-triazole-3-carboxamide]	5.83
Cc1cc(F)ccc1CC1(CNC(=O)c2nn(C)c(=O)[nH]2)CCC1 [Example 86, N-((1-(4-Fluoro-2-methylbenzyl)cyclobutyl)methyl)-1-methyl-5-oxo-4,5-dihydro-1H-1,2,4-triazole-3-carboxamide]	5.86
Cn1nc(C(=O)NCC2(Cc3ccc(F)cc3C(F)(F)F)CCC2)[nH]c1=O [Example 87, N-((1-(4-Fluoro-2-(trifluoromethyl)benzyl)cyclobutyl)methyl)-1-methyl-5-oxo-4,5-dihydro-1H-1,2,4-triazole-3-carboxamide]	5.57
O=C(NCC1(Cc2ccccc2)CCC1)c1noc(=O)[nH]1 [Example 88, N-((1-Benzylcyclobutyl)methyl)-5-oxo-4,5-dihydro-1,2,4-oxadiazole-3-carboxamide]	5.28
Cc1cccc(CC2(CNC(=O)c3nn(C)c(=O)[nH]3)CCC2)c1 [Example 89, 1-Methyl-N-((1-(3-methylbenzyl)cyclobutyl)methyl)-5-oxo-4,5-dihydro-1H-1,2,4-triazole-3-carboxamide]	6.05
Cn1nc(C(=O)NCC2(Cc3ccc(Cl)cc3F)CCC2)[nH]c1=O [Example 90, N-((1-(4-Chloro-2-fluorobenzyl)cyclobutyl)methyl)-1-methyl-5-oxo-4,5-dihydro-1H-1,2,4-triazole-3-carboxamide]	5.61
